Laboratory results as given in patent US20140163456A1, “METHOD OF PRODUCING SUBSTANCES WITH SUPERSATURATED GAS, TRANSDERMAL DELIVERY DEVICE THEREOF, AND USES THEREOF” (INVISIDERM, LLC, priority 2011, published 2014).

Legend:
individuals [1] = assay: Measurement of brachial diastolic and systolic blood pressure on right upper arm; format: in vivo, human
Protocol: (§1) The treatment was administered by having an individual insert the left thumb into the open-ended delivery outlet of a device disclosed herein creating a seal. The digit will be “bathed” for five minutes with a vapor including supersaturated dissolved molecular carbon dioxide from a canister providing pure, medical-grade carbon dioxide. Nine individuals were examined.
To conduct this study, individuals from the study described in Example 1 had there blood pressure taken. A measurement of both brachial diastolic blood pressure and systolic blood pressure was performed on the individual's right upper arm at six time points 1) 5 minutes before treatment (pre-treatment); 2) 5 minutes post-treatment; 3) 30 minutes post-treatment; 4) 60 minutes post-treatment; 5) 120 minutes post-treatment; and 6) 240 minutes post-treatment.

individuals [2] = assay: Measurement of blood flow: Skin Perfusion Pressure (SensiLase System) on right toe, capillary blood flow change; format: in vivo, human
Protocol: as §1
Tissue perfusion in distal arteries was accessed using a SensiLase System (a FDA-cleared device) and measuring Skin Perfusion Pressure (SPP) and Pulse Volume Recording (PVR). SPP is a pressure measurement in mmHg that assess local blood perfusion in capillaries using a laser Doppler to measure reactive hyperemia, which reflects microcirculation for distal arterial blood flow. PVR is a measurement of plethysmography to assess changes in arterial blood volume. A change in capillary blood flow (CBF) is calculated by determining the change in SPP values over time. For this study, the CBF values of all post-treatment measurements were calculated by dividing the post-treatment SPP value by the pre-treatment SPP value. A measurement of SPP was performed on the individual's right toe at six time points 1) 5 minutes before treatment (pre-treatment); 2) 5 minutes post-treatment; 3) 30 minutes post-treatment; 4) 60 minutes post-treatment; 5) 120 minutes post-treatment; and 6) 240 minutes post-treatment.

[3] = nine individuals, 5 to 240 min post-treatment
[4] = over the course of the entire 240 minute study

## O=C=O [molecular carbon dioxide, carbon dioxide]
Individuals [1]; [3]
  blood pressure: decreased blood pressure in all individuals examined at some point during the time period measured
Individuals [1]; [4]
  diastolic and systolic blood pressure: Seven of the nine individuals studied showed decreased diastolic and systolic blood pressure
Individuals [2]; [3]
  blood flow: increases blood flow in all individuals examined at some point during the time period measured
Individuals [2]; [4]
  sustained increases in capillary blood flow: six of the nine patients showed sustained increases in capillary blood flow
